This is an account of results in patent US8586708B2, “Monovalent streptavidin compositions” (Massachusetts Institute of Technology, priority 2005, dated 2013).

Like-named read-outs stand apart in the source and are kept apart here.

The nature of series [1]: Kd of D4 by 3H-biotin binding and protein precipitation. The protocol: After incubation at room temperature for 20 hr, the protein was precipitated by adding 50 μL to 200 μL 0.2 M ZnSO4 followed by 200 μL 0.2 M NaOH. The protein precipitate was pelleted by centrifugation at 16,500 g for 5 min. The biotin bound by D4 was calculated from the total ^3H -biotin added minus the ^3H -biotin in the supernatant. The Kd was obtained using a nonlinear regression analysis (one-site binding hyperbola) with SigmaPlot (Systat Software; Point Richmond, Calif.).

In series [2] the test system is biotinylated AP-CFP-TM on HeLa cells. Put plainly: Staining of biotinylated AP-CFP-TM on HeLa cells with Alexa Fluor 568 conjugates. The conditions noted are these: 10 μg/mL Alexa Fluor 568 conjugate, 10 min at 4° C. The format is cell-based. Here is the method:
(§1) Enzymatic biotinylation and imaging of HeLa transfectants were performed as previously described (Howarth, M. et al. Proc. Natl. Acad. Sci. USA 102: 7583-7588, 2005), except instead of 10 μM biotin and 1 mM ATP, we added 10 μM biotin-AMP (synthesized according to Coleman and Huang; Coleman, T. M. and Huang, F. Chem. Biol. 9: 1227-1236, 2002) to give equivalent biotinylation but minimizing the risk of purinoreceptor activation by ATP (Rathbone, M. P. et al., Prog. Neurobiol. 59: 663-690, 1999). […] Biotinylation of neurons was performed at day in vitro (DIV) 8 in Hanks' Balanced Salt Solution (HBSS) (Invitrogen) with 0.2 μM biotin ligase and 10 μM biotin-AMP for 5 min at 37° C. […] Neurons were washed with NeuroBasal media (Invitrogen) supplemented with B-27 (Invitrogen), 50 U/mL penicillin, 50 μg/mL streptomycin, and 0.2 mM L-glutamine and chased in the same medium for 0 or 2 hr at 37° C. Cells were then fixed in −20° C. methanol. […]
Images of HeLa cells were collected on a Zeiss Axiovert 200M inverted epifluorescence microscope using a 40× oil-immersion lens and a MicroMAX CCD camera (Roper Scientific; Tucson, Ariz.). CFP (420DF20 excitation, 450DRLP dichroic, 475DF40 emission) and Alexa568 (560DF20 excitation, 585DRLP dichroic, 605DF30 emission) images were collected and analyzed using OpenLab software (Improvision; Lexington, Mass.). Fluorescence images were background-corrected. […] Images were scaled to 16 bits and analyzed in Northern Eclipse (Empix Imaging; Ontario, Canada) with user-written software. […] Results were then calculated in terms of clusters per micrometer of dendrite. For assessment of pre-synaptic terminals, clusters were determined as before and average grey levels of clusters were compared between transfected dendrites and untransfected dendrites within the same field of view. […] “n” represents the number of transfected neurons for which clusters were measured. […]

Series [3] in a line: Off-rate of 3H-biotin with cold biotin chase and precipitation. The format is binding. The conditions noted are these: 10 nM 3H-biotin, 1 μM streptavidin, 50 μM cold biotin, 37° C.; ± s.e.m. The protocol:
(Green, N. M. Methods in Enzymol. 184: 51-67, 1990). Dissociation was then initiated by addition of cold biotin at a final concentration of 50 μM and time-points taken over 5 hours at 37° C. 50 μL aliquots were removed and added to 200 μL 0.2M ZnSO4 chilled on ice, followed by 200 μL 0.2 M NaOH. The protein precipitate was pelleted by centrifugation at 16,500 g for 5 min, and ^3H-biotin in the supernatant was measured by liquid scintillation counting. Data were plotted as ln(fraction bound) versus time, and fit to a straight line by linear regression. Dissociation rates were deduced from the slope of the line and the equation: ln(fraction bound)=−koff(t) where fraction bound=(total ^3H-biotin−free ^3H-biotin at timepoint)/(total ^3H-biotin−free ^3H-biotin before cold biotin chase).

The subject of series [4] is AP-neuroligin-1 on hippocampal neurons. Briefly: Clustering of biotinylated AP-neuroligin-1 on hippocampal neurons. The series is classed as cell-based, rat. Conditions: for AP-neuroligin-1 clusters/μm: two hour incubation at 37° C., ± s.e.m., n=9; for AP-neuroligin-1 staining pattern: zero hours. The protocol: HeLa cells were grown in Dulbecco's Modified Eagle Medium (DMEM) with 10% Fetal Calf Serum, 50 U/mL penicillin and 50 μg/mL streptomycin. HeLa stably expressing AP-CFP-TM or Ala-CFP-TM have been previously described (Howarth, M. et al. Proc. Natl. Acad. Sci. USA 102: 7583-7588, 2005). Dissociated primary neuronal cultures were prepared from Embryonic Day 18 or 19 (E18/19) rats and transfected with Lipofectamine 2000 at DIV6 as in Levinson et al. (Levinson, J. N. et al. J. Biol. Chem. 280: 17312-17319, 2005).
as §1, with “methanol. There was no signal from wild-type streptavidin labeling if neurons were instead transfected with Ala-neuroligin-1 containing a point mutation in AP, confirming the specificity of labeling (Howarth, M. et al. Proc. Natl. Acad. Sci. USA 102: 7583-7588, 2005). To observe synapse formation, cells were biotinylated and stained with streptavidin as above, biotinylation and streptavidin staining was repeated at 6 hr, and then after 24 hr total chase cells were fixed in methanol.” for “methanol.”
Images of HeLa cells were collected on a Zeiss Axiovert 200M inverted epifluorescence microscope using a 40× oil-immersion lens and a MicroMAX CCD camera (Roper Scientific; Tucson, Ariz.). CFP (420DF20 excitation, 450DRLP dichroic, 475DF40 emission) and Alexa568 (560DF20 excitation, 585DRLP dichroic, 605DF30 emission) images were collected and analyzed using OpenLab software (Improvision; Lexington, Mass.). Fluorescence images were background-corrected. […] Images were scaled to 16 bits and analyzed in Northern Eclipse (Empix Imaging; Ontario, Canada) with user-written software. […] Results were then calculated in terms of clusters per micrometer of dendrite. For assessment of pre-synaptic terminals, clusters were determined as before and average grey levels of clusters were compared between transfected dendrites and untransfected dendrites within the same field of view. […]

The nature of series [5]: Stability of monovalent streptavidin to subunit exchange (SDS-PAGE). The series is classed as physicochemical. Conditions: for A1D3 rearranged into D4: PBS. Here is the method: Methods described in the Methods section above herein were used for the following production and testing of monovalent streptavidin. Tests were performed to determine whether monovalent streptavidin would rearrange its subunit composition over time.

A short description of series [6]: Thermostability assay of tetramer (heat, SDS-PAGE). The series is classed as physicochemical. Conditions: 3 min, PBS. The protocol: 2.3 μM wild-type streptavidin or chimeric streptavidin in PBS was heated at the indicated temperature for 3 min in a PTC-200 PCR machine (MJ Research; Waltham, Mass.) and then immediately placed on ice (Bayer, E. A. et al. Electrophoresis 17: 1319-1324, 1996). Samples were mixed with 6× SDS-PAGE loading buffer and loaded onto a 16% polyacrylamide gel.

A further series concerns biotinylated cells. Put plainly: Binding to biotinylated cells. The format is cell-based.
The conditions of series [7]: literature value; read-out: Kd for biotin; cited from earlier work.

The Kd is the constant that tells how readily two partners part at equilibrium.

Regarding “D4: streptavidin with 4 dead subunits (N23A, S27D, S45A; SEQ ID NO:3) [Tetramer D4]”, the “biotin binding (in words)” value in series [1] is reported as “negligible biotin binding”. In series [1] (24 μM D4, 0-500 μM 3H-biotin, room temperature 20 hr, ± s.e.m.), this substance showed a Kd of 918 ± 0.0117 µM. The “Alexa staining of biotinylated AP-CFP-TM” value in series [2] is “no detectable staining”.
For “wild-type streptavidin: wild-type core streptavidin tetramer with 4 biotin binding sites (SEQ ID NO:2) [reference compound]”, the off-rate from biotin in series [3] is recorded as 5.17±0.25×10^−5 s^−1. Moreover, the “Alexa staining of biotinylated AP-CFP-TM” value in series [2] is recorded as “detected equally well”. Moreover, in series [4], the “AP-neuroligin-1 clusters/μm” value came to 0.266±0.011 clusters/μm and the AP-neuroligin-1 staining pattern result was “diffuse surface staining”.
In the case of “A1D3: chimeric streptavidin tetramer with one Alive (wild-type, His6-tagged) subunit and three Dead (N23A, S27D, S45A) subunits [Tetramer A1D3]”, in series [3], the off-rate from biotin was 6.14±0.19×10^−5 s^−1. The “A1D3 rearranged into D4” value is listed as 2% in series [5] (37° C. incubation for one day) and 3% in series [5] (room temperature incubation for one week). Besides, in series [5] (37° C. one day or room temperature one week), the “Formation of A2D2 from subunit exchange” value is given as “not detected”. The “tetramer stability to heat denaturation” value in series [6] (100° C.) is reported as “A significant fraction of A1D3 remained tetrameric”. The “thermostability compared with wild-type streptavidin” value in series [6] (various temperatures) was “little difference”. In addition, in series [2], the “Alexa staining of biotinylated AP-CFP-TM” value was “detected equally well”. Further, in series [4], the “AP-neuroligin-1 clusters/μm” value was determined as 0.087±0.021 clusters/μm. In addition, in series [4], the AP-neuroligin-1 staining pattern entry is given as “diffuse surface staining”.
Turning to “N23A, S27D: double mutant streptavidin tetramer with one of the weakest reported affinities for biotin”, the “binding to biotinylated cells” value in the series with biotinylated cells is “still bound”. Besides, the Kd in series [7] is 71 µM.
